In one assay the target is Adenosine receptor A2a (Rattus norvegicus, UniProt P30543). Put plainly: Binding affinity against Adenosine A2a receptor from rat striata.
Assay [1] addresses Adenosine receptors; A1 & A2a (Rattus norvegicus) (UniProt P25099+P30543). Description: Ratio of Ki for A2A and A1 receptors. The format is protein assay.
The target of another assay is T1, Adenosine receptor A1 (Rattus norvegicus, UniProt P25099).
T1 sequence (P25099 whole entry): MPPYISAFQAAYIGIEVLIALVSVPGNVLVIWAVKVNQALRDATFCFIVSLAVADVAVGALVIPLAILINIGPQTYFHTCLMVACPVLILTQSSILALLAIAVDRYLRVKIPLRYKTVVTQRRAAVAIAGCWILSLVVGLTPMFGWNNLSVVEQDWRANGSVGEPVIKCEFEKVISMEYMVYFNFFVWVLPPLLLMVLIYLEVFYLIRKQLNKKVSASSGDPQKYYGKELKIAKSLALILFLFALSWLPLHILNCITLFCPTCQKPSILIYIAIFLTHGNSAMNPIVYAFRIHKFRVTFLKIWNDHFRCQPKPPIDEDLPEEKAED
Put plainly: Binding affinity for rat brain Adenosine A1 receptor.

The target of assay [2] is Adenosine receptor A2a (Rattus norvegicus) (UniProt P30543). Put plainly: Binding affinity against Adenosine A2a receptor from rat striata at a concentration of 10e-3 uM.
Adenosine receptor A2a (Rattus norvegicus), sequence (P30543 whole entry): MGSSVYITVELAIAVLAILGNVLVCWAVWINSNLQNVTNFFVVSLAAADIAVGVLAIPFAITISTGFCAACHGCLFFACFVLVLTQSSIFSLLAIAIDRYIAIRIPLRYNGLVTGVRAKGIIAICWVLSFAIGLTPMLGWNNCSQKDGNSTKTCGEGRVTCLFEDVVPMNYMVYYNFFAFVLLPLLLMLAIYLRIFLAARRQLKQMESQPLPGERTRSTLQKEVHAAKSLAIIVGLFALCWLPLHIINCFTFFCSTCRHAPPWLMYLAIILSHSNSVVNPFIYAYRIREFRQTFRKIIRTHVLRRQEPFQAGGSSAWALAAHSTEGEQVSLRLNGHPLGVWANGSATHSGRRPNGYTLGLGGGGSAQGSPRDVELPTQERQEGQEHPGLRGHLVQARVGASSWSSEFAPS

Data on twelve compounds can be found in ChEMBL document CHEMBL1131656, “Diimidazo[1,2-c:4',5'-e]pyrimidines: N6-N1 conformationally restricted adenosines” (Bioorg Med Chem Lett, 1998).

Adenosine receptors; A1 & A2a (Rattus norvegicus), sequence (P30543 whole entry, looked up, one chain of several): as the sequence (P30543 whole entry) above
Adenosine receptor A2a, sequence (P30543 whole entry): as above

`CCCOC1=Nc2c(ncn2-c2ccccc2)C2=N[C@H](Cc3ccccc3)CN12`: the inhibition constant Ki at Adenosine receptor A2a stood at 72 µM. Also, the Ratio in assay [1] stood at 22.

Regarding `OC[C@@H]1OC(n2cnc3c2N=CN2C[C@@H](c4ccccc4)N=C32)[C@@H](O)[C@H]1O` (some centres undefined), the Ki on Adenosine receptor A2a was determined as 17.5 µM; at Adenosine receptor A1, 3.82 µM. For the same compound, the Ratio in assay [1] stood at 4.6.

Consider `CCCOC1=Nc2c(cnn2-c2ccccc2)C2=N[C@@H](Cc3ccccc3)CN12`, for which the affinity at Adenosine receptor A2a corresponds to a Ki of 3.3 µM. In addition, the Ratio in assay [1] was 0.35.

For `CCCOC1=Nc2c(cnn2-c2ccccc2)C2=N[C@H](C)[C@@H](c3ccccc3)N12`, the Ki on Adenosine receptor A2a was 11 µM. Moreover, in assay [1], the Ratio was 1.5.

As for `OC[C@@H]1OC(n2cnc3c2N=CN2C[C@@H](Cc4ccccc4)N=C32)[C@@H](O)[C@H]1O` (some centres undefined), the Ki came to 13.5 µM at Adenosine receptor A2a and 2.23 µM on Adenosine receptor A1. The Ratio in assay [1] is 6.

As for `C[C@H]1N=C2c3ncn(C4O[C@@H](CO)[C@H](O)[C@@H]4O)c3N=CN2[C@@H]1c1ccccc1` (some centres undefined), the results for the Ki at Adenosine receptor A2a and on Adenosine receptor A1 were 55.5 µM and 12.6 µM, respectively. For the same compound, in assay [1], the Ratio is 4.4.

Turning to `OC[C@@H]1OC(n2cnc3c2N=CN2C[C@H](Cc4ccccc4)N=C32)[C@@H](O)[C@H]1O` (some centres undefined), the inhibition constant Ki on Adenosine receptor A2a is 57.1 µM; on Adenosine receptor A1, 2.99 µM. For the same compound, the Ratio in assay [1] amounted to 19.

In the case of `C[C@@H]1N=C2c3ncn(C4O[C@@H](CO)[C@H](O)[C@@H]4O)c3N=CN2[C@H]1c1ccccc1` (some centres undefined), the inhibition in assay [2] came to 45%. The Ratio in assay [1] worked out at 70. This compound came in with a Ki at Adenosine receptor A1 of 11.2 µM.

On to `OC[C@@H]1OC(n2cnc3c2N=CN2C[C@H](c4ccccc4)N=C32)[C@@H](O)[C@H]1O` (some centres undefined), for which the Ki at Adenosine receptor A2a is 189 µM; on Adenosine receptor A1 it was 4.54 µM. For the same compound, the Ratio in assay [1] was found to be 42.

On to `CCCOC1=Nc2c(cnn2-c2ccccc2)C2=N[C@H](Cc3ccccc3)CN12`, for which the Ki on Adenosine receptor A2a was over 100 µM. Also, the Ratio in assay [1] is over 100.

On Adenosine receptor A2a, `CCCOC1=Nc2c(cnn2-c2ccccc2)C2=N[C@@H](C)[C@H](c3ccccc3)N12` yielded an inhibition constant Ki of 45 µM. Moreover, the Ratio in assay [1] was 1.4.

Consider `CCCOC1=Nc2c(ncn2-c2ccccc2)C2=N[C@@H](Cc3ccccc3)CN12`, for which the Ratio in assay [1] came out at 0.18.

The Ki is the equilibrium dissociation constant of an inhibitor or competing ligand from its target. A high value points to a looser hold on the target. The term inhibition denotes the percentage by which the read-out fell short of the control. A higher inhibition goes with a response far below the control.
